Data published in ChEMBL document CHEMBL5247666, “The rational design of novel 5-amino-2-oxindole derivatives with antiglaucomic activity” (2023).
The source made the active and inactive calls. No cut-off for these calls is given here.

Columns and labels:
Oryctolagus cuniculus [1] = assay: Hypotensive effect in New Zealand white rabbits assessed as reduction in intraocular pressure at 100 uM administered topically in presence of 6-hydroxydopamine and measured every hour for 8 hrs relative to control; assay type: functional; parameters: scale not given: the % may be the effect or the level left
Oryctolagus cuniculus [2] = assay: Hypotensive effect in New Zealand white rabbits assessed as reduction in intraocular pressure at 100 uM administered topically in presence of reserpine and measured every hour for 8 hrs relative to control; assay type: functional; parameters: scale not given: the % may be the effect or the level left
Oryctolagus cuniculus [3] = assay: Hypotensive effect in normotensive chinchilla rabbits assessed as maximal effective time administered once to both eyes and measured every hour for 6 hrs by automatic veterinary tonometer based assay; assay type: functional
Oryctolagus cuniculus [4] = assay: Hypotensive effect in normotensive chinchilla rabbits assessed as reduction in intraocular pressure administered once to both eyes and measured every hour for 6 hrs by automatic veterinary tonometer based assay relative to control; assay type: functional; parameters: concentration or dose not given beside the values
Oryctolagus cuniculus [5] = assay: Hypotensive effect in normotensive chinchilla rabbits assessed as reduction in intraocular pressure administered once to both eyes and measured after 6 hrs by automatic veterinary tonometer based assay; assay type: functional, organism-based
Oryctolagus cuniculus [6] = assay: Hypotensive effect in normotensive chinchilla rabbits assessed as reduction in intraocular pressure administered once to both eyes and measured after 6 hrs by automatic veterinary tonometer based assay relative to control; assay type: functional; parameters: scale not given: the % may be the effect or the level left

SMILES	Activity (Oryctolagus cuniculus [1]) [%]	Activity (Oryctolagus cuniculus [2]) [%]	Time (Oryctolagus cuniculus [3]) [h]	Activity (Oryctolagus cuniculus [4]) [%]	Activity (Oryctolagus cuniculus [5])	Activity (Oryctolagus cuniculus [6]) [%]
COC(=O)Nc1ccc2[nH]cc(CCNC(C)=O)c2c1	5	5				
COc1ccc2[nH]cc(CCNC(C)=O)c2c1 [MELATONIN]	5	5	3	12		
CC(C)(C)NC[C@H](O)COc1nsnc1N1CCOCC1 [TIMOLOL]			3	18	inactive	
COC(=O)Nc1ccc2c(c1)C(CC(=O)O)C(=O)N2 (stereo unspecified)			3	12		
CCOC(=O)Nc1ccc2c(c1)C(CC#N)C(=O)N2 (stereo unspecified)			5	8		
COC(=O)Nc1ccc2c(c1)C(CC#N)C(=O)N2 (stereo unspecified)			2	24		17
